Source: PubChem BioAssay AID1996
Values after ≈ are worked out from the molar mass of the structure shown.

Conditions: buffer; pH 7.4; 200.0 µM
Work on `Fc1ccccc1-c1nc(-c2ccncc2)no1` yielded a solubility kinetic of 0.006 mg/mL (≈ 24.9 µM). With `O=C(CN1CCN(c2ccccn2)CC1)Nc1cccc(F)c1` the solubility kinetic was 0.0199 mg/mL (≈ 63.3 µM). `O=C(O)CNC(=S)N(Cc1ccccc1)Cc1ccccc1F` showed a solubility kinetic of 0.0474 mg/mL (≈ 143 µM). Work on `Cc1cc(C(=O)OCC(=O)Nc2cccc([N+](=O)[O-])c2)c(C)o1` yielded a solubility kinetic of 0.0038 mg/mL (≈ 11.9 µM). In the case of `COc1ccccc1NC(=O)CN(Cc1ccco1)C(=O)c1ccc(N2CCCC2=O)cc1`, the solubility kinetic is reported as 0.0649 mg/mL (≈ 145 µM). `CCCn1nc(Oc2nc(N(C)C)nc(N(C)C)n2)ccc1=O` showed a solubility kinetic of over 0.0479 mg/mL. `O=C(CSc1ccccc1)Nc1ccc(Cl)c(S(=O)(=O)N2CCOCC2)c1` gave a solubility kinetic of 0.0146 mg/mL (≈ 34.2 µM). Compound `OC(CN1CCCCC1)c1c[nH]c2ccccc12` (stereo not given) has a solubility kinetic of over 0.0367 mg/mL. For `O=C(O)c1ccc(N2C(=O)CSC2c2cccc([N+](=O)[O-])c2)cc1` (stereo not given), the solubility kinetic was over 0.0517 mg/mL. `CN(C)/C=C1\C(=O)N(c2ccc(F)cc2F)C(c2cccnc2)S1(=O)=O` (stereo not given) showed a solubility kinetic of over 0.0569 mg/mL. `Cc1nc2oc3c(=O)[nH]cnc3c2c2c1COC(C)(C)C2` gave a solubility kinetic of 0.04 mg/mL (≈ 140 µM). Work on `Cc1cccc(C(=O)NCCCNC(=O)c2ccccn2)c1` yielded a solubility kinetic of over 0.0446 mg/mL. `O=C(Nc1nccs1)c1ccc2c(c1)OCO2` showed a solubility kinetic of 0.003 mg/mL (≈ 12.1 µM). Compound `Cc1cccc(Nc2c([N+](=O)[O-])ccc3nonc23)c1C` has a solubility kinetic of under 0.0001 mg/mL. In the case of `COC(=O)C1C(O)=C(C(C)=Nc2cccc3ccccc23)C(=O)CC1(C)C` (stereo not given), the solubility kinetic is reported as 0.0203 mg/mL (≈ 55.6 µM). With `COc1ccc(Oc2cccc(Cl)c2CNC(=O)CSCC(=O)O)cc1` the solubility kinetic was over 0.0594 mg/mL. `O=C1CCC(=O)N1OCCOc1ccccc1` showed a solubility kinetic of over 0.0353 mg/mL. `CCOc1cccc(C(=O)NC(c2ccccc2)C(C)C)c1` (stereo not given) gave a solubility kinetic of 0.0051 mg/mL (≈ 17.1 µM). In the case of `CCC(=O)Nc1ccc(S(=O)(=O)Nc2ccccn2)cc1`, the solubility kinetic is reported as over 0.0458 mg/mL. `Cc1ccc(CSc2nsc(C)c2C#N)cc1` showed a solubility kinetic of 0.0033 mg/mL (≈ 12.7 µM). For `CCCc1cc(=O)[nH]c(SC/C=C/c2ccccc2)n1`, the solubility kinetic was 0.0019 mg/mL (≈ 6.63 µM). Compound `CCN(CC)c1cc(C)c2cc(NC(=O)c3ccccc3F)ccc2n1` has a solubility kinetic of 0.0107 mg/mL (≈ 30.4 µM). Compound `CC(C)C(CCNC1CCN(C)CC1)c1ccc(Cl)cc1` (stereo not given) has a solubility kinetic of 0.0335 mg/mL (≈ 108 µM). Compound `COc1ccccc1NC(=O)c1cc(N)cc(C(=O)Nc2ccccc2OC)c1` has a solubility kinetic of 0.0295 mg/mL (≈ 75.4 µM). `Cn1cccc1C(=O)OCC(=O)N1c2ccccc2NC(=O)C1(C)C` showed a solubility kinetic of 0.0127 mg/mL (≈ 37.2 µM). `C=CCN(Cc1nc(-c2ccccc2)no1)C(=O)c1ccco1` gave a solubility kinetic of 0.0384 mg/mL (≈ 124 µM). Work on `COc1ccc(/C=C(\C#N)C(=O)c2cccn2C)cc1` yielded a solubility kinetic of 0.005 mg/mL (≈ 18.8 µM). Work on `Cc1ccc(NC(=O)c2ccc3c(c2)OCCO3)nc1` yielded a solubility kinetic of over 0.0405 mg/mL. With `COc1ccc(NC(=O)c2sc3nc(C)cc(C)c3c2N)c(OC)c1` the solubility kinetic was under 0.0003 mg/mL. For `CCn1c(=O)c2cc(C(=O)NC(C)C)sc2c2ccccc21`, the solubility kinetic was 0.001 mg/mL (≈ 3.18 µM). In the case of `CSc1ccc(CNC(C)C(O)c2ccccc2)cc1.Cl` (stereo not given), the solubility kinetic is reported as over 0.0486 mg/mL. In the case of `CCOC(=O)c1c(C)nc(C)c(C(=O)OCC)c1-c1ccco1`, the solubility kinetic is reported as over 0.0476 mg/mL. Work on `COC(=O)c1[nH]c2cccc(OC)c2c1NC(=O)CCN1CCSCC1` yielded a solubility kinetic of 0.0546 mg/mL (≈ 145 µM). With `Cc1cc(Cl)c(Cl)cc1S(=O)(=O)NCCCn1ccnc1` the solubility kinetic was 0.0452 mg/mL (≈ 130 µM). For `Cc1ccc(NC(=O)NCc2cccnc2)cc1`, the solubility kinetic was over 0.0362 mg/mL. With `Oc1ccccc1N1CCN(c2ccc3ccccc3n2)CC1` the solubility kinetic was 0.0042 mg/mL (≈ 13.8 µM). Compound `NC(=S)NNc1cccc2cccnc12` has a solubility kinetic of over 0.0327 mg/mL. Compound `CC(C)C(=O)Nc1ccc2c(c1)nc(CCN1CCCCC1)n2C` has a solubility kinetic of over 0.0493 mg/mL. With `COc1ccc(C(O)(CCN2CCOCC2)c2ccccc2)cc1` (stereo not given) the solubility kinetic was 0.0411 mg/mL (≈ 126 µM). `Cc1ccc2nc(NC(=O)CC3Oc4ccccc4NC3=O)sc2c1` (stereo not given) showed a solubility kinetic of 0.0038 mg/mL (≈ 10.8 µM). `CCc1cccc(NC(=O)CC2Oc3ccccc3NC2=O)c1` (stereo not given) gave a solubility kinetic of 0.0024 mg/mL (≈ 7.73 µM). Work on `O=C1CCCC(=O)N1c1ccc(F)cc1` yielded a solubility kinetic of over 0.0311 mg/mL. Compound `Cc1cc(Nc2ccc(C)c(Cl)c2)nc(N2CCOCC2)n1` has a solubility kinetic of 0.0076 mg/mL (≈ 23.8 µM). Compound `O=C(CSCc1ccccc1Cl)Nc1ccc(C(=O)O)cc1` has a solubility kinetic of over 0.0504 mg/mL. Compound `COc1ccccc1NS(=O)(=O)c1ccc(OC)c([N+](=O)[O-])c1` has a solubility kinetic of over 0.0508 mg/mL. `O=C(O)C1C2CCC(C2)C1C(=O)N1CCCC1` (stereo not given) gave a solubility kinetic of over 0.0356 mg/mL. Work on `COc1ccc(-n2c(=S)[nH]c3sc4c(c3c2=O)CCc2ccccc2-4)cc1` yielded a solubility kinetic of 0.0014 mg/mL (≈ 3.57 µM). With `O=C(CCl)N(C1CCCC1)C1CCS(=O)(=O)C1` (stereo not given) the solubility kinetic was over 0.042 mg/mL. Work on `O=C(Nc1ccc2c(c1)OCO2)c1ccccc1` yielded a solubility kinetic of over 0.0362 mg/mL. `CCOc1ccc(N2C(=O)CC(Cc3cc(C)cc(C)c3)C2=O)cc1` (stereo not given) gave a solubility kinetic of 0.004 mg/mL (≈ 11.9 µM). Work on `COc1ccc(NC(=O)C2CC(c3ccccc3Cl)=NO2)cc1` (stereo not given) yielded a solubility kinetic of 0.0376 mg/mL (≈ 114 µM). Work on `CC(NC(=S)NC1CCC(C(C)(C)C)CC1)c1ccccc1` (stereo not given) yielded a solubility kinetic of under 0.0003 mg/mL. `COc1ccccc1NC(=O)N1CCCC1C(=O)NCc1cccs1` (stereo not given) showed a solubility kinetic of over 0.0539 mg/mL. Work on `O=C(Nc1ccccc1C(=O)Nc1ccc(F)cc1)c1ccco1` yielded a solubility kinetic of 0.0009 mg/mL (≈ 2.78 µM). With `Fc1ccccc1NC(=S)N1CCOCC1` the solubility kinetic was over 0.036 mg/mL. `CC1Cc2ccccc2N1CC(=O)NC(=O)NC1CCCCC1` (stereo not given) gave a solubility kinetic of 0.0246 mg/mL (≈ 78 µM). `Cc1cc2nc3c(=O)[nH]c(=S)[nH]c3nc2cc1NC(=O)C(F)(F)F` gave a solubility kinetic of 0.0268 mg/mL (≈ 75.4 µM). `O=C(COc1ccccc1Cl)NC1CC1` gave a solubility kinetic of over 0.0339 mg/mL. For `CS(=O)(=O)N1CCCC(C(=O)Nc2ccccc2F)C1` (stereo not given), the solubility kinetic was over 0.0451 mg/mL. With `C#CCOc1c(Cl)cc(/C=C2/C(=O)ON=C2C)cc1OC` the solubility kinetic was 0.0435 mg/mL (≈ 142 µM).
